Tested on: SMARTCAR-MTH1-wt-HiBiT (Jurkat.7 cells)
Test: HiBit Lytic Assay (HiBit DC50, MTH1 degraders of Table 2)
Type: cell-based, human
Conditions: Jurkat.7 SMARTCAR-MTH1-wt-HiBiT cells, compound treatment time 4 hr, 11-point half log dose response
Description: Example 3. HiBit Lytic Assay
• Compound is made at 10 mM, half log dilution, 11 points. • MDR plates can also be ordered from Frontier with same format. • 1. Barcode a 384LDV plate (384-well Low Dead Volume Microplate, Labcyte LP-0200) (Echo compatible) on the left side. • 2. Transfer 13.6 μL of 10 mM compound into column 1 of LDV plate (Labcyte). • 3. Fill column 2-11 and column 23 of MDR plate with 9.30 μL of DMSO. • 4. Serial dilute 3.16 fold from column 1 to 2 by transferring 4.30 μL from column 1 to column 2, and so on to column 11. *Change tip in every dilution to prevent compound carryover effect! • 5. Seal the plate with Plate Sealer, then store the MDR plate at room temperature for short term storage and in −20° C. for long term storage.
• Cells are treated with 30 nL of each compound at 10 mM, half log dilution, 11 points with final concentration of 1000 nM or 833 nM, half log dilution, 11 points, in duplicates. Final DMSO concentration is 0.1%. • 1. Barcode the plates made on the left side and label the plates with silver marker. • 2. Dispense with the following scheme: • a. 30 nL of compound into corresponding wells in cell plates via Echo550 with “MDR32_HiBiT16_30 nL”. Top concentration will be 1000 nM. • 3. Seal the plate with Plate Sealer.
• Cells are dispensed at density specified in Cell Line Table in 384-well microplate. • 1. Culture cells to between 50-80% of confluence in sterile culture flasks of appropriate size. • 2. For Adherent Cell Lines: • a. Aspirate off growth media in culture flask, and wash off the Phenol Red media with 5 mL of 1×PBS. • b. Add 5 mL of Trypsin to the cells, incubate at 37° C. for 5 minutes. • c. Add 5 mL of growth media to the trypsinzed cells, and resuspend. • 3. Remove 10 μL of cells, and resuspend the cells with 10 μL of Trypan Blue. Insert the solution to counting chamber slide, and count the cells via cell counter. • 4. Adjust the cell concentration to specified plating density, and strain the cells with cell strainer. • 5. Dispense the cells via E1-ClipTip™ Electronic Multichannel Pipettes or Multidrop™ Combi Reagent Dispenser with Standard tube dispensing cassette: • a. Prime the cassette with 10-20 mL of ddH2O. • b. Prime the cassette with 10-20 mL of cells. • c. Dispense the cells at low speed for 30 μL/well in Corning® 384 Well Low Flange Black Flat Bottom Polystyrene TC-Treated Microplate. • d. Wash the cassette with 10-20 mL of ddH2O, follow by 10-20 mL of 70% EtOH, then again with 10-20 mL of ddH2O. • 6. Incubate the plates at 37° C.×compound treatment time.
• 1. If not already, bring Nano-Glo® HiBiT Lytic Buffer to room temperature. • 2. Determine the amount of reagent needed. A volume of reagent equal to the volume of media in the well should be added (i.e. 30 μL of cells will need 30 μL of HiBiT Lytic reagent). • 3. Into a given volume of buffer, dilute the substrate 50-fold and the LgBiT protein 100-fold. For example, to make 10 ml of reagent, add the following: • 10 ml Nano-Glo® HiBiT Lytic Buffer • 200 μl Nano-Glo® HiBiT Lytic Substrate • 100 μl LgBiT Protein • The reagent should be reconstituted immediately before use. However, once reconstituted, it should take about 4 hours for the activity to decrease 10%. • 4. Cool down the cell plate to room temperature for 10-15 minutes without lid. • 5. Dispense the HiBiT Lytic Reagent via E1-ClipTip™ Electronic Multichannel Pipettes or Multidrop™ Combi Reagent Dispenser with Standard tube dispensing cassette: • a. Prime the cassette with 10-20 mL of ddH2O. • b. Prime the cassette with 10-20 mL of CTG 2.0. • c. Dispense the HiBiT Lytic Reagent at medium speed for 30 μL/well in cell plate to column 1-23 (column 24 will be used as plate background). • d. Wash the cassette with 10-20 mL of ddH2O, follow by 10-20 mL of 70% EtOH, then again with 10-20 mL of ddH2O. • 6. Incubate the cell plate at room temperature for 10 minutes without lid. • 7. […]

DC50, < 100 nM:
CNC(=O)c1cnc2ccc(-c3ccc(C(=O)NCCCCNC(=O)C(C)Nc4cccc5c4C(=O)N(C4CCC(=O)NC4=O)C5=O)cc3)cc2c1Nc1ccccc1 (stereo not shown) [Compound 346, 4-anilino-6-[4-[4-[2-[[2-(2,6-dioxo-3-piperidyl)-1,3-dioxo-isoindolin-4-yl]amino]propanoylamino]butylcarbamoyl]phenyl]-N-methyl-quinoline-3-carboxamide]
CNC(=O)c1cnc2ccc(N3CCC(C(=O)NCCCCNC(=O)COc4cccc5c4C(=O)N(C4CCC(=O)NC4=O)C5=O)CC3)cc2c1Nc1ccccc1 (stereo not shown) [Compound 347, 4-anilino-6-[4-[4-[[2-[2-(2,6-dioxo-3-piperidyl)-1,3-dioxo-isoindolin-4-yl]oxyacetyl]amino]butylcarbamoyl]-1-piperidyl]-N-methyl-quinoline-3-carboxamide]
CNC(=O)c1cnc2ccc(-c3ccc(C(=O)NCCCCNC(=O)COc4cccc5c4C(=O)N(C4CCC(=O)NC4=O)C5=O)c(F)c3)cc2c1Nc1ccccc1 (stereo not shown) [Compound 351, 4-anilino-6-[4-[4-[[2-[2-(2,6-dioxo-3-piperidyl)-1,3-dioxo-isoindolin-4-yl]oxyacetyl]amino]butylcarbamoyl]-3-fluoro-phenyl]-N-methyl-quinoline-3-carboxamide]
CNC(=O)c1cnc2ccc(-c3ccc(C(=O)NCCCCNC(=O)CNc4cccc5c4C(=O)N(C4CCC(=O)NC4=O)C5=O)c(C)c3)cc2c1Nc1ccccc1 (stereo not shown) [Compound 353, 4-anilino-6-[4-[4-[[2-[[2-(2,6-dioxo-3-piperidyl)-1,3-dioxo-isoindolin-4-yl]amino]acetyl]amino]butylcarbamoyl]-3-methyl-phenyl]-N-methyl-quinoline-3-carboxamide]
CNC(=O)c1cnc2ccc(-c3ccc(C(=O)NCCCCNC(=O)COc4cccc5c4C(=O)N(C4CCC(=O)NC4=O)C5=O)c(C)c3)cc2c1Nc1ccccc1 (stereo not shown) [Compound 354, 4-anilino-6-[4-[4-[[2-[2-(2,6-dioxo-3-piperidyl)-1,3-dioxo-isoindolin-4-yl]oxyacetyl]amino]butylcarbamoyl]-3-methyl-phenyl]-N-methyl-quinoline-3-carboxamide]
CNC(=O)c1cnc2ccc(-c3ccc(C(=O)NCCCCn4cc(CNc5cccc6c5C(=O)N(C5CCC(=O)NC5=O)C6=O)nn4)cc3)cc2c1Nc1ccccc1 (stereo not shown) [Compound 356, 4-anilino-6-[4-[4-[4-[[[2-(2,6-dioxo-3-piperidyl)-1,3-dioxo-isoindolin-4-yl]amino]methyl]triazol-1-yl]butylcarbamoyl]phenyl]-N-methyl-quinoline-3-carboxamide]
CNC(=O)c1cnc2ccc(-c3ccc(C(=O)NCCCCNC(=O)COc4cccc5c4C(=O)N(C4CCC(=O)NC4=O)C5=O)nc3)cc2c1Nc1ccccc1 (stereo not shown) [Compound 357, 4-anilino-6-[6-[4-[[2-[2-(2,6-dioxo-3-piperidyl)-1,3-dioxo-isoindolin-4-yl]oxyacetyl]amino]butylcarbamoyl]-3-pyridyl]-N-methyl-quinoline-3-carboxamide]
CNC(=O)c1cnc2ccc(-c3ccc(C(=O)NCCCCNC(=O)CNc4cccc5c4C(=O)N(C4CCC(=O)NC4=O)C5=O)nc3)cc2c1Nc1ccccc1 (stereo not shown) [Compound 358, 4-anilino-6-[6-[4-[[2-[[2-(2,6-dioxo-3-piperidyl)-1,3-dioxo-isoindolin-4-yl]amino]acetyl]amino]butylcarbamoyl]-3-pyridyl]-N-methyl-quinoline-3-carboxamide]
CNC(=O)c1cnc2ccc(-c3ccc(C(=O)NCCCCN4CCN(c5cccc6c5C(=O)N(C5CCC(=O)NC5=O)C6=O)CC4)cc3)cc2c1Nc1ccccc1 (stereo not shown) [Compound 359, 4-anilino-6-[4-[4-[4-[2-(2,6-dioxo-3-piperidyl)-1,3-dioxo-isoindolin-4-yl]piperazin-1-yl]butylcarbamoyl]phenyl]-N-methyl-quinoline-3-carboxamide]
CNC(=O)c1cnc2ccc(-c3cnn(CCCCCCNC(=O)COc4cccc5c4C(=O)N(C4CCC(=O)NC4=O)C5=O)c3)cc2c1Nc1ccccc1 (stereo not shown) [Compound 360, 4-anilino-6-[1-[6-[[2-[2-(2,6-dioxo-3-piperidyl)-1,3-dioxo-isoindolin-4-yl]oxyacetyl]amino]hexyl]pyrazol-4-yl]-N-methyl-quinoline-3-carboxamide]
CNC(=O)c1cnc2ccc(-c3ccc(C(=O)NCCCNC(=O)C(C)Nc4cccc5c4C(=O)N(C4CCC(=O)NC4=O)C5=O)cc3)cc2c1Nc1ccccc1 (stereo not shown) [Compound 363, 4-anilino-6-[4-[3-[2-[[2-(2,6-dioxo-3-piperidyl)-1,3-dioxo-isoindolin-4-yl]amino]propanoylamino]propylcarbamoyl]phenyl]-N-methyl-quinoline-3-carboxamide]
CNC(=O)c1cnc2ccc(-c3ccc(NCCCCNC(=O)CNc4cccc5c4C(=O)N(C4CCC(=O)NC4=O)C5=O)nc3)cc2c1Nc1ccccc1 (stereo not shown) [Compound 365, 4-anilino-6-[6-[4-[[2-[[2-(2,6-dioxo-3-piperidyl)-1,3-dioxo-isoindolin-4-yl]amino]acetyl]amino]butylamino]-3-pyridyl]-N-methyl-quinoline-3-carboxamide]
CNC(=O)c1cnc2ccc(-c3ccc(C(=O)NCCCCNC(=O)C(C)Nc4cccc5c4C(=O)N(C4CCC(=O)NC4=O)C5=O)c(F)c3)cc2c1Nc1ccccc1 (stereo not shown) [Compound 372, 4-anilino-6-[4-[4-[2-[[2-(2,6-dioxo-3-piperidyl)-1,3-dioxo-isoindolin-4-yl]amino]propanoylamino]butylcarbamoyl]-3-fluoro-phenyl]-N-methyl-quinoline-3-carboxamide]
CNC(=O)c1cnc2ccc(-c3ccc(C(=O)NCCCCNC(=O)CCc4cccc5c4CN(C4CCC(=O)NC4=O)C5=O)cc3)cc2c1Nc1ccccc1 (stereo not shown) [Compound 374, 4-anilino-6-[4-[4-[3-[2-(2,6-dioxo-3-piperidyl)-1-oxo-isoindolin-4-yl]propanoylamino]butylcarbamoyl]phenyl]-N-methyl-quinoline-3-carboxamide]
CNC(=O)c1cnc2cc(C(F)(F)F)c(-c3ccc(C(=O)NCCCCNC(=O)CNc4cccc5c4C(=O)N(C4CCC(=O)NC4=O)C5=O)c(F)c3)cc2c1Nc1ccccc1 (stereo not shown) [Compound 375, 6-(4-((4-(2-((2-(2,6-dioxopiperidin-3-yl)-1,3-dioxoisoindolin-4-yl)amino)acetamido)butyl)carbamoyl)-3-fluorophenyl)-N-methyl-4-(phenylamino)-7-(trifluoromethyl)quinoline-3-carboxamide]
CNC(=O)c1cnc2cc(OC)c(-c3ccc(C(=O)NCCCCn4cc(CNc5cccc6c5C(=O)N(C5CCC(=O)NC5=O)C6=O)nn4)cn3)cc2c1Nc1ccccc1 (stereo not shown) [Compound 376, 6-(5-((4-(4-(((2-(2,6-dioxopiperidin-3-yl)-1,3-dioxoisoindolin-4-yl)amino)methyl)-1H-1,2,3-triazol-1-yl)butyl)carbamoyl)pyridin-2-yl)-7-methoxy-N-methyl-4-(phenylamino)quinoline-3-carboxamide]

From patent publication US20210198256A1, “COMPOUNDS FOR THE DEGRADATION OF BRD9 OR MTH1” (C4 Therapeutics, Inc., priority 2018, published 2021)
